Laboratory results from PubChem BioAssay (NCI).
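Compound exposure: 48 hours, 5 concentrations, 96-well plates. GI50 marks 50% less growth. Definition used: TGI = concentration required for complete inhibition of growth.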

Legend:
Experiment in all cases: inhibition of tumour cell growth, NCI panel, 48 h
786-0 renal = test system: 786-0 renal
A498 renal = test system: A498 renal
A549 NSCLC = test system: A549 NSCLC
ACHN renal = test system: ACHN renal
BT-549 breast = test system: BT-549 breast
CAKI-1 renal = test system: CAKI-1 renal
CCRF-CEM leukemia = test system: CCRF-CEM leukemia
COLO 205 colon = test system: COLO 205 colon
DU-145 prostate = test system: DU-145 prostate
EKVX NSCLC = test system: EKVX NSCLC
HCC-2998 colon = test system: HCC-2998 colon
HCT-116 colon = test system: HCT-116 colon
HCT-15 colon = test system: HCT-15 colon
HL-60(TB) leukemia = test system: HL-60(TB) leukemia
HOP-62 NSCLC = test system: HOP-62 NSCLC
HS 578T breast = test system: HS 578T breast
HT29 colon = test system: HT29 colon
IGROV1 ovarian = test system: IGROV1 ovarian
K-562 leukemia = test system: K-562 leukemia
KM12 colon = test system: KM12 colon
LOX IMVI melanoma = test system: LOX IMVI melanoma
M14 melanoma = test system: M14 melanoma
MALME-3M melanoma = test system: MALME-3M melanoma
MCF7 breast = test system: MCF7 breast
MDA-MB-231 breast = test system: MDA-MB-231 breast
MDA-MB-435 = test system: MDA-MB-435
MOLT-4 leukemia = test system: MOLT-4 leukemia
NCI-H226 lung = test system: NCI-H226 lung
NCI-H23 lung = test system: NCI-H23 lung
NCI-H460 lung = test system: NCI-H460 lung
NCI-H522 lung = test system: NCI-H522 lung
NCI/ADR-RES ovarian = test system: NCI/ADR-RES ovarian
OVCAR-3 ovarian = test system: OVCAR-3 ovarian
OVCAR-5 ovarian = test system: OVCAR-5 ovarian
OVCAR-8 ovarian = test system: OVCAR-8 ovarian
PC-3 prostate = test system: PC-3 prostate
RPMI-8226 leukemia = test system: RPMI-8226 leukemia
RXF 393 renal = test system: RXF 393 renal
SF-268 CNS = test system: SF-268 CNS
SF-295 CNS = test system: SF-295 CNS
SF-539 CNS = test system: SF-539 CNS
SK-MEL-28 melanoma = test system: SK-MEL-28 melanoma
SK-MEL-5 melanoma = test system: SK-MEL-5 melanoma
SK-OV-3 ovarian = test system: SK-OV-3 ovarian
SN12C renal = test system: SN12C renal
SNB-19 CNS = test system: SNB-19 CNS
SNB-75 CNS = test system: SNB-75 CNS
SR leukemia = test system: SR leukemia
SW-620 colon = test system: SW-620 colon
T-47D breast = test system: T-47D breast
TK-10 renal = test system: TK-10 renal
U251 CNS = test system: U251 CNS
UACC-257 melanoma = test system: UACC-257 melanoma
UACC-62 melanoma = test system: UACC-62 melanoma
UO-31 renal = test system: UO-31 renal

CCCn1cnc2c(SCc3ccccc3)nc(N)nc21
GI50 (786-0 renal): > 100 µM | TGI (786-0 renal): > 100 µM | GI50 (A498 renal): 19.7 µM | TGI (A498 renal): 75.2 µM | GI50 (A549 NSCLC): 77.8 µM | TGI (A549 NSCLC): > 100 µM | GI50 (ACHN renal): > 100 µM | TGI (ACHN renal): > 100 µM | GI50 (BT-549 breast): 51.9 µM | TGI (BT-549 breast): > 100 µM | GI50 (CAKI-1 renal): 89.3 µM | TGI (CAKI-1 renal): > 100 µM | GI50 (CCRF-CEM leukemia): 72.9 µM | TGI (CCRF-CEM leukemia): > 100 µM | GI50 (COLO 205 colon): > 100 µM | TGI (COLO 205 colon): > 100 µM | GI50 (DU-145 prostate): > 100 µM | TGI (DU-145 prostate): > 100 µM | GI50 (EKVX NSCLC): 67.3 µM | TGI (EKVX NSCLC): > 100 µM | GI50 (HCC-2998 colon): > 100 µM | TGI (HCC-2998 colon): > 100 µM | GI50 (HCT-116 colon): 63 µM | TGI (HCT-116 colon): > 100 µM | GI50 (HCT-15 colon): 37.8 µM | TGI (HCT-15 colon): > 100 µM | GI50 (HL-60(TB) leukemia): 65.3 µM | TGI (HL-60(TB) leukemia): > 100 µM | GI50 (HOP-62 NSCLC): > 100 µM | TGI (HOP-62 NSCLC): > 100 µM | GI50 (HS 578T breast): > 100 µM | TGI (HS 578T breast): > 100 µM | GI50 (HT29 colon): > 100 µM | TGI (HT29 colon): > 100 µM | GI50 (IGROV1 ovarian): > 100 µM | TGI (IGROV1 ovarian): > 100 µM | GI50 (K-562 leukemia): 56.8 µM | TGI (K-562 leukemia): > 100 µM | GI50 (KM12 colon): > 100 µM | TGI (KM12 colon): > 100 µM | GI50 (LOX IMVI melanoma): 98.9 µM | TGI (LOX IMVI melanoma): > 100 µM | GI50 (M14 melanoma): > 100 µM | TGI (M14 melanoma): > 100 µM | GI50 (MALME-3M melanoma): > 100 µM | TGI (MALME-3M melanoma): > 100 µM | GI50 (MCF7 breast): > 100 µM | TGI (MCF7 breast): > 100 µM | GI50 (MDA-MB-231 breast): > 100 µM | TGI (MDA-MB-231 breast): > 100 µM | GI50 (MDA-MB-435): > 100 µM | TGI (MDA-MB-435): > 100 µM | GI50 (MOLT-4 leukemia): 95.7 µM | TGI (MOLT-4 leukemia): > 100 µM | GI50 (NCI-H226 lung): 30.5 µM | TGI (NCI-H226 lung): > 100 µM | GI50 (NCI-H23 lung): > 100 µM | TGI (NCI-H23 lung): > 100 µM | GI50 (NCI-H460 lung): 42.2 µM | TGI (NCI-H460 lung): > 100 µM | GI50 (NCI-H522 lung): > 100 µM | TGI (NCI-H522 lung): > 100 µM | GI50 (NCI/ADR-RES ovarian): 63.2 µM | TGI (NCI/ADR-RES ovarian): > 100 µM | GI50 (OVCAR-3 ovarian): > 100 µM | TGI (OVCAR-3 ovarian): > 100 µM | GI50 (OVCAR-5 ovarian): > 100 µM | TGI (OVCAR-5 ovarian): > 100 µM | GI50 (OVCAR-8 ovarian): 71.8 µM | TGI (OVCAR-8 ovarian): > 100 µM | GI50 (PC-3 prostate): 67.9 µM | TGI (PC-3 prostate): > 100 µM | GI50 (RPMI-8226 leukemia): 41.6 µM | TGI (RPMI-8226 leukemia): > 100 µM | GI50 (RXF 393 renal): 24.4 µM | TGI (RXF 393 renal): > 100 µM | GI50 (SF-268 CNS): > 100 µM | TGI (SF-268 CNS): > 100 µM | GI50 (SF-295 CNS): 32.1 µM | TGI (SF-295 CNS): > 100 µM | GI50 (SF-539 CNS): > 100 µM | TGI (SF-539 CNS): > 100 µM | GI50 (SK-MEL-28 melanoma): > 100 µM | TGI (SK-MEL-28 melanoma): > 100 µM | GI50 (SK-MEL-5 melanoma): 21.2 µM | TGI (SK-MEL-5 melanoma): > 100 µM | GI50 (SK-OV-3 ovarian): > 100 µM | TGI (SK-OV-3 ovarian): > 100 µM | GI50 (SN12C renal): > 100 µM | TGI (SN12C renal): > 100 µM | GI50 (SNB-19 CNS): > 100 µM | TGI (SNB-19 CNS): > 100 µM | GI50 (SNB-75 CNS): > 100 µM | TGI (SNB-75 CNS): > 100 µM | GI50 (SR leukemia): 49.6 µM | TGI (SR leukemia): > 100 µM | GI50 (SW-620 colon): > 100 µM | TGI (SW-620 colon): > 100 µM | GI50 (T-47D breast): 56.9 µM | TGI (T-47D breast): > 100 µM | GI50 (TK-10 renal): 80.5 µM | TGI (TK-10 renal): > 100 µM | GI50 (U251 CNS): 41.4 µM | TGI (U251 CNS): > 100 µM | GI50 (UACC-257 melanoma): > 100 µM | TGI (UACC-257 melanoma): > 100 µM | GI50 (UACC-62 melanoma): > 100 µM | TGI (UACC-62 melanoma): > 100 µM | GI50 (UO-31 renal): 67.7 µM | TGI (UO-31 renal): > 100 µM
